Assay results published in patent US12365674B2, “Inhibitors of histone deacetylase useful for the treatment or prevention of HIV infection” (Merck Sharp & Dohme LLC, priority 2019, dated 2025).
pIC50: −log10 of the molar value.

Experiments:
Assay type in all cases: biochemical
HDAC6 = target: T1, HDAC6 (Homo sapiens, UniProt Q9UBN7); test: Human HDAC enzyme inhibitor Fluor-de-Lys assay, HDAC6; conditions: 1.3 nM enzyme, 2.5 μM substrate BML-KI104, 3 h pre-incubation, 60 min reaction; read-out: HDAC6_IC50
T1 sequence (Q9UBN7 1-1215): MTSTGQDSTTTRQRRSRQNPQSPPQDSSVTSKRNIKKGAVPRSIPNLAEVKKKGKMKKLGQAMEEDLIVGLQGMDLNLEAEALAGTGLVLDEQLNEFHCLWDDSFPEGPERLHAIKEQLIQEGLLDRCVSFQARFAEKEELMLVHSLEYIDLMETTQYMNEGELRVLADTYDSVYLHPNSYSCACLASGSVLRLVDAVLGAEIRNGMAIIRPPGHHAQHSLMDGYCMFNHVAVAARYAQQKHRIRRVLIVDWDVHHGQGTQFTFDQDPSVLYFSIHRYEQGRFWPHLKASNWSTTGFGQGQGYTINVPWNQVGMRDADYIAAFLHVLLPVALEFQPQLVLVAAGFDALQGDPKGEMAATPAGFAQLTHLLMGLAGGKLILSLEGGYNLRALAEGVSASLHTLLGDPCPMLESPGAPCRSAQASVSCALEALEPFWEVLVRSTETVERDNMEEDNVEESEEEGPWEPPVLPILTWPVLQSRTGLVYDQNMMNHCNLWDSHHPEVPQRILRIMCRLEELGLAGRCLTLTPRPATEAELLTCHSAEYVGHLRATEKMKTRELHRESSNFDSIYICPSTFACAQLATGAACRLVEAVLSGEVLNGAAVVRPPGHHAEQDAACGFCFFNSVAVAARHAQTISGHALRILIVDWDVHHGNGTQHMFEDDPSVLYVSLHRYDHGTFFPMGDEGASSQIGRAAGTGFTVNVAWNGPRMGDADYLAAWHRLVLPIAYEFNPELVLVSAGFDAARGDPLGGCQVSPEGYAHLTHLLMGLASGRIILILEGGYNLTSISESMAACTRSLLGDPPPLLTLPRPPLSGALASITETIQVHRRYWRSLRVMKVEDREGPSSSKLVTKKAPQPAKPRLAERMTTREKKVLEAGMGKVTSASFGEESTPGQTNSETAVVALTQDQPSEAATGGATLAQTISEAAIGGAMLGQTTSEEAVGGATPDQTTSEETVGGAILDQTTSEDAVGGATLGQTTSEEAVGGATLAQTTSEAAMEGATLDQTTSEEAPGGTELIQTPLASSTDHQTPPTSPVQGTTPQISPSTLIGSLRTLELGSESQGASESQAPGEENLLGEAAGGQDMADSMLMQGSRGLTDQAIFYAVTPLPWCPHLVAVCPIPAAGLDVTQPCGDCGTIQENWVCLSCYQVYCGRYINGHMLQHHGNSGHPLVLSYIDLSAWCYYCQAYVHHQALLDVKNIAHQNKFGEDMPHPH
From the text: (§1) Recombinant human HDAC8 (catalog number BML-SE145-0100) and HDAC10 (catalog number BML-SE559-0050) enzymes, HDAC substrates BML-KI104 and BML-KI178, and HDAC developer solutions BML-KI105 and BML-KI176 were purchased from Enzo Life Sciences (Farmingdale, NY). Recombinant human HDAC5 and HDAC11 were purchased from BPS Bioscience (San Diego, CA)(catalog numbers 50045 and 50021). Substrate Boc-Lys(TFA)-AMC was obtained from Bachem (Bupendorf, Switzerland) (catalog number 1-1985). HDAC inhibitor suberoylanilide hydroxamic acid (SAHA) was obtained from Indofine (Hillsborough Township, NJ) and trichostatin A (TSA) was obtained from Sigma-Aldrich (St. Louis, MO). […] HEPES pH 8.0 was obtained from Boston BioProducts (Ashland, MA), Tween-20 from Fisher Scientific (Hampton, NH)(catalog number BP337), TCEP from Calbiochem and 7.5% bovine serum albumin (BSA) from Life Technologies (Carlsbad, CA) (catalog number 15260037). 384-well, black assay plates were obtained from Corning (Corning, NY) (catalog number 3575).
(§2) The histone deacetylase activities of HDAC1, HDAC2, HDAC3, HDAC6, and HDAC8 were measured in modified Fluor-de-Lys assays in 384-well format. In this assay, HDAC enzymes are initially incubated with an ε-acetyl (or -trifluoroacetyl)-L-lysine-containing substrate with a C-terminal amide having aminomethylcoumarin as the amine component. HDACs cleave the ε-acetyl group, rendering the resulting product susceptible to AMC cleavage by trypsin. The released AMC is then detected by its fluorescence.
(§3) The HDAC 1, 2 assays employed buffer A, which contained 20 mM HEPES, pH 8.0, 1 mM MgCl2, 137 mM NaCl, 2.7 mM KCl, 0.05% BSA. The HDAC3/SMRT assay employed buffer B, consisting of 20 mM HEPES, pH 8.0, 1 mM MgCl2, 50 mM NaCl, 2.7 mM KCl, 0.05% BSA, 0.005% Tween 20, and 10 μM IP4. The HDAC6 assay employed buffer C, consisting of 20 mM HEPES, pH 8.0, 1 mM MgCl2, 137 mM NaCl, 2.7 mM KCl, 0.5 mM TCEP (Calbiochem) and 0.05% BSA. The HDAC8 assay employed buffer D, consisting of 20 mM HEPES, pH 8.0, 1 mM MgCl2, 100 mM NaCl, 20 mM KCl, 0.1% n-octyl-β-D-glucoside (Anatrace, Maumee, OH) and 0.05% BSA. All steps were performed at room temperature (23° C.). The assay was performed by pre-incubating serial dilutions of test compounds with the target HDAC prior to initiation with substrate. Each compound was titrated in a 10-point dose response, using a 1:3 fold dilution scheme, with 0.15 ul of solution added by ECHO555 to the plate, followed by the addition of 20 μl of the appropriate HDAC isoform diluted in appropriate assay buffer. […] Final conditions used for each assay were: 1. HDAC 1, 0.3 nM total enzyme, 20 μM substrate BML-K1104; 2. HDAC 2, 1.5 nM total enzyme, 40 μM substrate BML-K1104; 3. HDAC 3/SMRT, 0.3 nM total enzyme, 20 μM substrate BML-K1104; 4. HDAC 6, 1.3 nM total enzyme, 2.5 μM substrate BML-K1104; 5. HDAC 8, 1.3 nM total enzyme, 200 μM substrate BML-K1178; the final high dose of test compound was 30 μM. For potent compounds, 900 nM was used as the final high dose. The reactions were stopped and developed by addition of 30 ul of HDAC developer solution containing a saturating level of HDAC inhibitor as follows: 1.

human HDAC8 = target: T2, human HDAC8 (Homo sapiens, UniProt Q9BY41); test: Human HDAC enzyme inhibitor Fluor-de-Lys assay, HDAC8; conditions: 1.3 nM enzyme, 200 μM substrate BML-KI178, 3 h pre-incubation, 60 min reaction; read-out: HDAC8_IC50
T2 construct: purchased Enzo Life Sciences BML-SE145-0100
T2 sequence (Q9BY41 1-377): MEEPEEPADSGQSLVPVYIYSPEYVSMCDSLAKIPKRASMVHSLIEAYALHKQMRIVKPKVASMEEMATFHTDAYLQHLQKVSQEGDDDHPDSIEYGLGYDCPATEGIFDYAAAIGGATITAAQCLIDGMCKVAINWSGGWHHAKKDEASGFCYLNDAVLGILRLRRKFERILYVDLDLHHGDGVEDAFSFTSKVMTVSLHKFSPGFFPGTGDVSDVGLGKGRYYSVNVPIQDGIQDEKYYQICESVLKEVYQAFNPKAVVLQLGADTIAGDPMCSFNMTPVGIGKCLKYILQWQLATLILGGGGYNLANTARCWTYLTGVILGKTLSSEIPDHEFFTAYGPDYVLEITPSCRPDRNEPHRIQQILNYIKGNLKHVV
From the text: as §1, §2, §3

[1] = target: T3, human HDAC3/SMRT heterodimer (Homo sapiens, UniProt O15379); test: Human HDAC enzyme inhibitor Fluor-de-Lys assay, HDAC3/SMRT; conditions: HDAC3/SMRT 0.3 nM enzyme, 20 μM substrate BML-KI104, 10 μM IP4, 3 h pre-incubation, 60 min reaction; read-out: HDAC3_IC50
T3 construct: Full length human HDAC3-FLAG was expressed in HEK-293F cells along with SMRT; host or cells: HEK-293F cells
T3 sequence (O15379 whole entry): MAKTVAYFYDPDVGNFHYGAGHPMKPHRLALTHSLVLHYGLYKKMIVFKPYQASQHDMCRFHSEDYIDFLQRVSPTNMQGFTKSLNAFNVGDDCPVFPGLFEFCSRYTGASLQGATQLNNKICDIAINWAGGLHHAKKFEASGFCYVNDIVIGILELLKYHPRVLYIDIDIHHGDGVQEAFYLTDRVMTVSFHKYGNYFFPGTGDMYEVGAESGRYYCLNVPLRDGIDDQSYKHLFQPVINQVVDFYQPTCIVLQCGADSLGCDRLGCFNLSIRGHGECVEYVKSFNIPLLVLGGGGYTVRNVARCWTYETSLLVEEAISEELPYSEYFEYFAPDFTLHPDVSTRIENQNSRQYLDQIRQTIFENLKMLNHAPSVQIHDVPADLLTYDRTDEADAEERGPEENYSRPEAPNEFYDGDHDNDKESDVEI
T3 sequence (Q9Y618 1-899 partner limits assumed): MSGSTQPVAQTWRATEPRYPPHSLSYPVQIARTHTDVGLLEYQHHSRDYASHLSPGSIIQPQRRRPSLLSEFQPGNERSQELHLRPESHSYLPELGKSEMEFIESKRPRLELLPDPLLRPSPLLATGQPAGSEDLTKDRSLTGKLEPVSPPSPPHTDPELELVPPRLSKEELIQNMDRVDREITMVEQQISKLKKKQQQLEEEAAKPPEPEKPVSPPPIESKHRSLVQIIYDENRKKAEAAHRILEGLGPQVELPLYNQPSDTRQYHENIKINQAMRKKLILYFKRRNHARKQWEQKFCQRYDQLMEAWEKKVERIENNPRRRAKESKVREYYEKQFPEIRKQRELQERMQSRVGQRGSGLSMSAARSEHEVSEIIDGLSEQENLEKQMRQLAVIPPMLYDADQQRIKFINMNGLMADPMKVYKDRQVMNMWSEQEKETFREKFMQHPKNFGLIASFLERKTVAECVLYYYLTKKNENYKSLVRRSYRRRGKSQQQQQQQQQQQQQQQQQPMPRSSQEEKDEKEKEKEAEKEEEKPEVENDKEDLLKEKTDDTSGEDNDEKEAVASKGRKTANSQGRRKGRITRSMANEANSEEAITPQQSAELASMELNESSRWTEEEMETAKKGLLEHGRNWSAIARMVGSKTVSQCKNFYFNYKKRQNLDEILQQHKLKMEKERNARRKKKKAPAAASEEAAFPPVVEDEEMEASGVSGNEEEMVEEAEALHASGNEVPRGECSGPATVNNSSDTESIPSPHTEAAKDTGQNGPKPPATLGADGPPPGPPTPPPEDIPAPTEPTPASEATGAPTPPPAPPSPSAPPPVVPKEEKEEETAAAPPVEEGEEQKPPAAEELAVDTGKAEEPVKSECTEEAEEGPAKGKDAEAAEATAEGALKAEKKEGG
From the text: as §1
(§4) Recombinant human HDAC1, HDAC2, and HDAC3/SMRT heterodimer were prepared by Merck Research Laboratories. […] The eluted protein was then passed over an anti-HDAC1 immunoaffinity column to remove any complexes containing HDAC1. […]
as §2
as §3, with “For potent compounds, 900 nM was used as the final high dose.” left out

human HDAC2 = target: T4, human HDAC2 (Homo sapiens, UniProt Q92769); test: Human HDAC enzyme inhibitor Fluor-de-Lys assay, HDAC2; conditions: 1.5 nM enzyme, 40 μM substrate BML-KI104, 3 h pre-incubation, 60 min reaction; read-out: HDAC2_IC50
T4 construct: Full length human HDAC2-FLAG was expressed in baculovirus infected Sf9 cells; host or cells: baculovirus infected Sf9 cells
T4 sequence (Q92769 whole entry): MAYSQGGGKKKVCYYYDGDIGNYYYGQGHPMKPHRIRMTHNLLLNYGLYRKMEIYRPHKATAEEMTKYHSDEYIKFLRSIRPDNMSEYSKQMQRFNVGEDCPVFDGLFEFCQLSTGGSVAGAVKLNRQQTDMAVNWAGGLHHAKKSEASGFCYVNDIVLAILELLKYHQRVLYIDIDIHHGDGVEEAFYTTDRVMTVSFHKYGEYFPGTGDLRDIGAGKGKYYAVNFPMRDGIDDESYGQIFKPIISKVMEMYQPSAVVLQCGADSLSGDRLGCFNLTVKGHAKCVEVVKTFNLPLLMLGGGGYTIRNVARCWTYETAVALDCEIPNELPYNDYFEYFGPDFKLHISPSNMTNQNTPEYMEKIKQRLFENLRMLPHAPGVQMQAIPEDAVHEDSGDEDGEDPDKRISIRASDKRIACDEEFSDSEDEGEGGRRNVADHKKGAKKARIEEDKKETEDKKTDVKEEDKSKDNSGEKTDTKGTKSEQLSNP
From the text: as §1, §4, §2
as §3, with “For potent compounds, 900 nM was used as the final high dose.” left out

| Structure (SMILES) | pIC50 (HDAC6) | pIC50 (human HDAC8) | pIC50 [1] | pIC50 (human HDAC2) |
| --- | --- | --- | --- | --- |
| CCC(=O)CCCOC[C@H](NC(=O)[C@H]1CC12CCN(C)CC2)c1ncc(-c2cc3ccccc3nc2OC)[nH]1 [Compound 4, (S)—N—((R)-1-(5-(2-methoxyquinolin-3-yl)-1H-imidazol-2-yl)-2-((4-oxohexyl)oxy)ethyl)-6-methyl-6-azaspiro[2.5]octane-1-carboxamide] | 4.63 | < 4.35 |  |  |
| CCC(=O)CCCOC[C@H](NC(=O)C1CN(C)C1)c1ncc(-c2cc3ccccc3nc2OC)[nH]1 [Compound 3, (R)—N-(1-(5-(2-methoxyquinolin-3-yl)-1H-imidazol-2-yl)-2-((4-oxohexyl)oxy)ethyl)-1-methylazetidine-3-carboxamide] |  |  | 6.53 | 5.36 |
